Like-named read-outs stand apart in the source and are kept apart here.
Experiments:
[1] = target: T1, His tagged PTPN2 (TC45) protein (Homo sapiens, UniProt P17706); assay: Mobility shift assay (MSA) for potency of PTPN2 inhibitors; assay type: biochemical; details: read-out: PTPN2 MSA IC50
T1 construct: made in house
T1 sequence (P17706 with tags, fused parts or gaps isoform P17706-2): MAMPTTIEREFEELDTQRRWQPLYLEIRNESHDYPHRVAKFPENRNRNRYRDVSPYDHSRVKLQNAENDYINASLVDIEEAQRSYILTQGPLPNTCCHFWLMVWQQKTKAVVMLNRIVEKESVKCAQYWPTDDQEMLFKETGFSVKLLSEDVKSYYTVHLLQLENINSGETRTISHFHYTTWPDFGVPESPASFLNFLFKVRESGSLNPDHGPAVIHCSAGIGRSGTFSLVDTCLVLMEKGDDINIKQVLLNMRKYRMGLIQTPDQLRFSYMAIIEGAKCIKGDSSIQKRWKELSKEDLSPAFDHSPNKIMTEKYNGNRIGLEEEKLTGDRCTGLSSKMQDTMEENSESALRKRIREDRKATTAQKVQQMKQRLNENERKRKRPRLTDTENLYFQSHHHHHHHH
Method in brief: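 His-tagged PTPN2 TC45 (0.5 nM) was preincubated with compound (12-point, 1:3) for 10 min at room temperature in 50 mM HEPES pH 7.5, 1 mM EGTA, 10 mM EDTA, 0.01% Tween 20, 2 mM DTT. OG488-labelled phospho-insulin-receptor peptide ([…]) was then added for 10 min. After quenching, dephosphorylation was measured by microfluidic mobility shift and IC50 derived from % inhibition.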

[2] = test system: B16F10 mouse melanoma cells; assay: B16F10 IFNγ-induced cellular growth inhibition assay; assay type: cell-based; details: Mus musculus, B16-F10, 33 μM compound
Method in brief: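 B16F10 cells (500/well, DMEM + 10% FBS) dosed in triplicate at 100 μM to 0.001 μM (0.1% DMSO) with or without 0.5 ng/mL final mouse IFNγ. Confluence imaged every 6 h for 5 days; % growth inhibition calculated versus DMSO/with-IFNγ control once DMSO/no-IFNγ wells exceeded 95% confluence.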

[3] = +0.5 ng/mL IFNγ, relative to DMSO control, read-out: % B16F10 growth inhibition (+0.5 ng/mL IFNγ) @ 33 μM
[4] = no IFNγ, read-out: % B16F10 growth inhibition (no IFNγ) @ 33 μM

SMILES | IC50 [1] [nM] | inhibition at 33 µM [2, 3] [%] | inhibition at 33 µM [2, 4] [%]
O=C(COc1ccc2cc(O)c(N3CC(=O)NS3(=O)=O)c(F)c2c1)NCCC1CC1 [Compound 281, N-(2-cyclopropylethyl)-2-{[8-fluoro-6-hydroxy-7-(1,1,4-trioxo-1λ^6,2,5-thiadiazolidin-2-yl)naphthalen-2-yl]oxy}acetamide] | 1 to 10 | 25 to 59 | < 25
O=C1CN(c2c(O)cc3ccc(CC4CN(S(=O)(=O)C5CC5)C4)cc3c2F)S(=O)(=O)N1 [Compound 256, 5-(7-{[1-(cyclopropanesulfonyl)azetidin-3-yl]methyl}-1-fluoro-3-hydroxynaphthalen-2-yl)-1λ^6,2,5-thiadiazolidine-1,1,3-trione] | < 1 | 25 to 59 | < 25
O=C1CN(c2c(O)cc3ccc(C(F)F)cc3c2F)S(=O)(=O)N1 [Compound 167, 5-[7-(difluoromethyl)-1-fluoro-3-hydroxynaphthalen-2-yl]-1λ^6,2,5-thiadiazolidine-1,1,3-trione] | 10 to 100 | 60 to 90 | < 25
O=C1CN(c2c(O)cc3ccc(NCCc4ccccc4)cc3c2F)S(=O)(=O)N1 [Compound 164, 5-{1-fluoro-3-hydroxy-7-[(2-phenylethyl)amino]naphthalen-2-yl}-1λ^6,2,5-thiadiazolidine-1,1,3-trione] | < 1 | > 90 | < 25
N#CCCCOc1ccc2cc(O)c(N3CC(=O)NS3(=O)=O)c(F)c2c1 [Compound 129, 4-{[8-fluoro-6-hydroxy-7-(1,1,4-trioxo-1λ^6,2,5-thiadiazolidin-2-yl)naphthalen-2-yl]oxy}butanenitrile] | < 1 | > 90 | < 25
CC(C)NC(=O)Oc1ccc2cc(O)c(N3CC(=O)NS3(=O)=O)c(F)c2c1 [Compound 103, 8-fluoro-6-hydroxy-7-(1,1,4-trioxo-1λ^6,2,5-thiadiazolidin-2-yl)naphthalen-2-yl propan-2-ylcarbamate] | 1 to 10 | 60 to 90 | < 25
O=C1CN(c2c(O)cc3ccc(O)cc3c2F)S(=O)(=O)N1 [Compound 276, 5-(1-fluoro-3,7-dihydroxynaphthalen-2-yl)-1λ^6,2,5-thiadiazolidine-1,1,3-trione] | 1 to 10 | 25 to 59 | < 25
O=C1CN(c2c(O)cc3ccc(OCC4CC(F)(F)C4)cc3c2F)S(=O)(=O)N1 [Compound 235, 5-{7-[(3,3-difluorocyclobutyl)methoxy]-1-fluoro-3-hydroxynaphthalen-2-yl}-1λ^6,2,5-thiadiazolidine-1,1,3-trione] | 1 to 10 | 60 to 90 | < 25
O=C1CN(c2c(O)cc3ccc(OCC(F)F)cc3c2F)S(=O)(=O)N1 [Compound 302, 5-[7-(2,2-difluoroethoxy)-1-fluoro-3-hydroxynaphthalen-2-yl]-1λ^6,2,5-thiadiazolidine-1,1,3-trione] | 1 to 10 | 60 to 90 | < 25
CC(C)CS(=O)(=O)N1CC=C(c2ccc3cc(O)c(N4CC(=O)NS4(=O)=O)c(F)c3c2)C1 [Compound 300, 5-{1-fluoro-3-hydroxy-7-[1-(2-methylpropane-1-sulfonyl)-2,5-dihydro-1H-pyrrol-3-yl]naphthalen-2-yl}-1λ^6,2,5-thiadiazolidine-1,1,3-trione] | < 1 | 60 to 90 | < 25
O=C1CN(c2c(O)cc3ccc(OCCO)cc3c2F)S(=O)(=O)N1 [Compound 277, 5-[1-fluoro-3-hydroxy-7-(2-hydroxyethoxy)naphthalen-2-yl]-1λ^6,2,5-thiadiazolidine-1,1,3-trione] | 1 to 10 | 60 to 90 | < 25
